Results on two compounds are retold here after ChEMBL document CHEMBL4706669, “Majonoside-R2 extracted from Vietnamese ginseng protects H9C2 cells against hypoxia/reoxygenation injury via modulating mitochondrial function and biogenesis” (2021).

Each structure is given as a SMILES string. Activity calls are given as the source filed them. The calls are words filed in the database; no cut-off is given here.

Assay [1] concerns H9c2. Briefly: Cardioprotective activity against HR-induced injury in rat H9c2 cells assessed as increase in cell viability at 10 uM by CCK-8 assay relative to control. The class given is functional. (In general: Tetrazolium assays rely on reduction of a dye to a coloured formazan, in cell work by metabolically active cells.)
Assay [2] has as its system H9c2. Nature of the assay: Protection against HR-induced mitochondrial dysfunction in rat H9c2 cells assessed as mitochondrial membrane potential by measuring TMRE intensity by fluorescence microplate reader (reference value: 98.59 +/- 0.96 %). The class given is functional, cell-based. Particulars: dose 9.0 µM.
Assay [3] relates to H9c2. Briefly: Protection against HR-induced mitochondrial dysfunction in rat H9c2 cells assessed as decrease in ROS production by fluorescence microplate reader. In kind it is functional, cell-based.
Assay [4] has as its system H9c2. Nature of the assay: Protection against HR-induced mitochondrial dysfunction in rat H9c2 cells assessed as increase in cardiolipin content by fluorescence microplate reader. In kind it is functional, cell-based.
Assay [5] can be described thus: Induction of mitochondrial biogenesis in rat H9c2 cells with HR-induced injury assessed as upregulation of PGC1beta mRNA expression relative to GADPH (reference value: 0.981 +/- 0.007). In kind it is functional.
Assay [6] relates to H9c2. Nature of the assay: Cardioprotective activity against HR-induced injury in rat H9c2 cells assessed as increase in cell viability at 0.1 to 90 uM by CCK-8 assay. In kind it is functional, cell-based. Particulars: dose 0.1-90 µM.
The test system of assay [7] is H9c2. Nature of the assay: Induction of mitochondrial biogenesis in rat H9c2 cells with HR-induced injury assessed as upregulation of TFAM expression. The class given is functional, cell-based.
Assay [8] relates to H9c2. Nature of the assay: Increase in mitochondrial mass in rat H9c2 cells with HR-induced injury assessed as increase in NAO intensity by fluorescence microscopic analysis. The class given is functional, cell-based.
Assay [9] relates to H9c2. Briefly: Induction of mitochondrial biogenesis in rat H9c2 cells with HR-induced injury assessed as increase in NRF-1 mRNA expression. The class given is functional, cell-based.
The test system of assay [10] is H9c2. Briefly: Induction of mitochondrial biogenesis in rat H9c2 cells with HR-induced injury assessed as […] in NRF-2 mRNA expression. The class given is functional, cell-based.
Assay [11] relates to H9c2. Briefly: Induction of mitochondrial biogenesis in rat H9c2 cells with HR-induced injury assessed as increase in NAO intensity by fluorescence microscopic analysis. The class given is functional, cell-based.
Assay [12] is described as follows: Induction of mitochondrial biogenesis in rat H9c2 cells with HR-induced injury assessed as upregulation of PPAR expression by immunoblotting (reference value: 0.065 +/- 0.019). In kind it is functional. On the technique in general: In western blotting, separated proteins are transferred to a membrane and probed.
The subject of assay [13] is H9c2. Briefly: Induction of mitochondrial biogenesis in rat H9c2 cells with HR-induced injury assessed as effect on PGC1alpha mRNA expression. In kind it is functional, cell-based.
The nature of assay [14]: Induction of mitochondrial biogenesis in rat H9c2 cells with HR-induced injury assessed as upregulation of ATP5I expression (reference value: 0.998 +/- 0.001). In kind it is functional.
Assay [15] relates to H9c2. Nature of the assay: Cardioprotective activity against HR-induced injury in rat H9c2 cells assessed as increase in cell viability at 9 uM by CCK-8 assay relative to control. The class given is functional.

Turning to `CS(=O)(=O)O.CS(=O)(=O)O.O=S1(=O)CCN(Cc2cc(NCC3CCOCC3)c3[nH]c(-c4ccccc4)cc3c2)CC1`, in assay [1], the Activity came out at 84.37%. In addition, the result in assay [2], in [3] and in assay [4] was Active.

For `CC(C)(O)[C@@H]1CC[C@@](C)([C@H]2CC[C@]3(C)[C@@H]2[C@H](O)C[C@@H]2[C@@]4(C)CC[C@H](O)C(C)(C)[C@@H]4[C@@H](O[C@@H]4O[C@H](CO)[C@@H](O)[C@H](O)[C@H]4O[C@@H]4OC[C@@H](O)[C@H](O)[C@H]4O)C[C@]23C)O1` [MAJONOSIDE R2], the results for the “fold change (FC)” value in assay [5], in assay [12] and in assay [14] were 1.113, 0.867 and 1.135, respectively. Also, the result in assay [6], in [7], in assay [8], in assay [9], in [10] and in assay [2] was Active. Also, the result in [11], in assay [3] and in [4] was Active. For the same compound, in assay [13], the result was inactive. In [15], the Activity is reported as 78.09%.
